Source: the SangsterLogP compilation
Each block holds one compound with its values, some of them ahead of it.

Key:
[1] = method code SF-AS, from DOI: 10.1002/chin.198428254
[2] = method code SF-HPLC, from DOI: 10.1248/cpb.47.1081, PMID: 10478463; settings: pH 6.5
[3] = not given; remark: listed apart in the source
[4] = method code SF-RC, from DOI: 10.1016/j.nucmedbio.2006.06.006, PMID: 16934700; settings: pH 7.4
[5] = method code SF, from DOI: 10.1016/0168-3659(92)90078-6; settings: pH 7.0
[6] = method code SF-AS, from DOI: 10.1002/ps.2780160411
[7] = method code SF-AS, from DOI: 10.1163/156856796x00098; settings: pH 7.4
[8] = not given; remark: listed apart in the source
[9] = method code SF-AS, from DOI: 10.1021/jm00395a009, PMID: 3681892; settings: pH 7.4
[10] = not given; remark: listed apart in the source
[11] = method code SF-RC, from DOI: 10.1016/0361-9230(85)90153-4, PMID: 2413968
[12] = not given; remark: listed apart in the source
[13] = not given; remark: listed apart in the source
[14] = method code SF-RC, from Godoy, N.; Valle, L.; Mena, P.; Gil, M. (1989). Synthesis, labeling and biodistribution of 99mTc-labelled bromoimino diacetic acids. Nucleotecnica, 9(17)25-32.
[15] = not given; remark: listed apart in the source
[16] = not given; remark: listed apart in the source
[17] = not given; remark: listed apart in the source
[18] = not given; remark: listed apart in the source
[19] = method code SF-AS, from DOI: 10.1016/j.bmc.2004.10.037, PMID: 15653345
[20] = method code SF, from PMID: 8999431; settings: pH 7.4
[21] = method code SF-HPLC, from DOI: 10.1016/s0021-9673(99)01336-9, PMID: 10757301
[22] = not given; remark: listed apart in the source
[23] = not given; remark: listed apart in the source
[24] = method code SF-AS, from DOI: 10.1248/cpb.32.5003, PMID: 6534549

SMILES: CCCCOP(=O)(OCCCC)Oc1ccccc1
- logP: 3.23

SMILES: O=C(NCCN1CCN2Cc3[nH]c4ccccc4c3CC2C1)c1ccccc1[N+](=O)[O-] (centres undefined)
- logP [1]: 1.8

SMILES: CON=C(C(=O)NC1C(=O)N2C(C(=O)OC(C)OC(=O)OC3CCCCC3)=CCSC12)c1csc(N)n1 (centres undefined)
- logD [2]: 2.52

SMILES: CCCCC(CC)COP(=O)(Oc1ccccc1)Oc1ccccc1 (centres undefined)
- logP: 5

SMILES: OC(Cn1cncn1)(c1ccc(F)cc1)c1ccccc1F (centres undefined)
- logP [3]: 2.3

SMILES: CON=C(C(=O)NC1C(=O)N2C(C(=O)OC(C)OC(C)=O)=CCSC12)c1csc(N)n1 (centres undefined)
- logD [2]: 0.46

SMILES: COc1ccc(-c2cc3ccccc3s2)cc1
- logD [4]: 3.07

SMILES: CCCCC(=O)OC[C@@H]1CC[C@H](n2cnc3c(=O)[nH]cnc32)O1
- logD [5]: 0.65

SMILES: CCCC1COC(Cn2cncn2)(c2ccc(Cl)cc2Cl)O1 (centres undefined)
- logP [3]: 3.4

SMILES: CNc1ccc(-c2ccc3cc(OCC(O)CF)ccc3n2)cc1 (centres undefined)
- logP [8]: 2.32

SMILES: C[C@]12C=CC(=O)C=C1CC[C@@H]1[C@@H]2C(=O)C[C@@]2(C)[C@H]1CC[C@]2(O)C(=O)CO
- logP [10]: 1.6

SMILES: CCCC(=O)OC[C@@H]1CC[C@H](n2cnc3c(=O)[nH]cnc32)O1
- logD [5]: 0.11

SMILES: CSCC[C@H](NC(=O)[C@H](CC(C)C)NC(=O)CNC(=O)[C@H](Cc1ccccc1)NC(=O)[C@H](Cc1ccccc1)NC(=O)[C@H](CCC(N)=O)NC(=O)[C@H](CCC(N)=O)NC(=O)[C@@H]1CCCN1C(=O)[C@H](CCCCN)NC(=O)[C@@H]1CCCN1C(=O)[C@@H](N)CCCN=C(N)N)C(N)=O
- logP [11]: -0.56

SMILES: Nc1ccc(-c2ccc3cc(OCCF)ccc3n2)cc1
- logP [8]: 2.4

SMILES: c1ccc2c(c1)Cc1cc3ccccc3cc1-2
- logP [13]: 5.75

SMILES: Cc1cc(C)c(NC(=O)CN(CC(=O)O)CC(=O)O)c(C)c1Br
- logP [14]: -0.11

SMILES: Cc1onc(-c2c(F)cccc2Cl)c1C(=O)N[C@@H]1C(=O)N2[C@@H]1SC(C)(C)[C@@H]2C(=O)O
- logP [15]: 2.58

SMILES: Clc1cccc(Cl)c1C=NN=c1ccn(CCc2c(Cl)cccc2Cl)cc1
- logP [16]: 4

SMILES: COc1ccc2c(c1)OC[C@]1(O)c3cc4c(cc3O[C@H]21)OCO4
- logP [18]: 2.58

SMILES: C#CCN1CCN(Cc2ccc(O)c3ncccc23)CC1
- logP [19]: 1.79

SMILES: CC(=O)OC[C@H]1O[C@@H](n2ccc(=O)[nH]c2=O)[C@H](OC(C)=O)[C@@H]1OC(C)=O
- logD [9]: -0.36

SMILES: CCOC(=O)CNC(=O)c1cn(CC)c2nc(C)ccc2c1=O
- logD [20]: 2.07

SMILES: FCCCOc1ccc(-c2cc3ccccc3s2)cc1
- logD [4]: 2.88

SMILES: Cc1c2ccccc2c(C)c2ccccc12
- logP [13]: 5.25

SMILES: CC(=O)OCC1=C(C(=O)O)N2C(=O)C(NC(=O)Cc3cccs3)C2SC1 (centres undefined)
- logP [21]: 0.08

SMILES: CCOC(=O)N1CCN(Cc2ccc(O)c3ncccc23)CC1
- logP [19]: 1.57

SMILES: NC(=O)[C@@H]1CCCN1C(=O)[C@H](Cc1cnc[nH]1)NC(=O)[C@@H]1CCC(=O)N1
- logP [11]: -1.42

SMILES: CCOCn1c(Cc2cc(C)cc(C)c2)c(C(C)C)c(=O)[nH]c1=O
- logP [23]: 3.46

SMILES: Cc1cccc2c1Cc1ccccc1-2
- logP [13]: 4.97

SMILES: CCNC(=O)[C@@H]1CCCN1C(=O)[C@H](CCCN=C(N)N)NC(=O)[C@H](CC(C)C)NC(=O)[C@@H](COC(C)(C)C)NC(=O)[C@H](Cc1ccc(O)cc1)NC(=O)[C@H](CO)NC(=O)[C@H](Cc1c[nH]c2ccccc12)NC(=O)[C@H](Cc1cnc[nH]1)NC(=O)[C@@H]1CCC(=O)N1
- logP [11]: -1.35

SMILES: CCCCc1ccc(NC(=O)CN(CC(=O)O)CC(=O)O)cc1Br
- logP [14]: -0.1

SMILES: COc1ccc([C@@H]2COc3cc(O)ccc3C2)c(O)c1
- logP [18]: 2.44

SMILES: CO/N=C(\C(=O)N[C@@H]1C(=O)N2C(C(=O)O)=C(COC(C)=O)CS[C@H]12)c1csc(N)n1
- logP [21]: -0.13

SMILES: CC1(C)S[C@@H]2[C@H](NC(=O)C(C(=O)Oc3ccccc3)c3ccccc3)C(=O)N2[C@H]1C(=O)O (some centres undefined)
- logP [15]: 3.14

SMILES: CN(CCF)c1ccc2cc(CC=C(C#N)C#N)ccc2c1
- logP [8]: 3.71

SMILES: Clc1cccc(Cl)c1C=NN=c1ccn(CCCc2ccccc2)cc1
- logP [16]: 3.9

SMILES: FCCCNc1ccc(-c2cc3ccccc3s2)cc1
- logD [4]: 3.56

SMILES: CS(=O)(=O)NC(=O)c1cc(Oc2ccc(C(F)(F)F)cc2Cl)ccc1[N+](=O)[O-]
- logP [6]: 2.9

SMILES: CC(=O)OCC1=C(C(=O)O)N2C(=O)[C@@H](NC(=O)CSc3ccncc3)[C@H]2SC1
- logP [21]: -0.15

SMILES: CCc1c(Sc2ccccc2)n(COCc2ccccc2)c(S)nc1=O
- logP [23]: 3.44

SMILES: FC(F)C(F)(F)OCC1COC(Cn2cncn2)(c2ccc(Cl)cc2Cl)O1 (centres undefined)
- logP [3]: 3.2

SMILES: c1ccc2c3c([nH]c2c1)CN1CCNCC1C3 (centres undefined)
- logP [1]: 0.36

SMILES: COc1ccc(-c2cc(C#N)c(Cl)nc2C)cc1OC
- logP [22]: 2.86

SMILES: O=c1c(F)cn(C2CCCO2)c(=O)n1Cc1ccccc1 (centres undefined)
- logD [9]: 1.38

SMILES: Cc1ccc(Br)c(C)c1NC(=O)CN(CC(=O)O)CC(=O)O
- logP [14]: 0.28

SMILES: CON=C(C(=O)NC1C(=O)N2C(C(=O)OC(C)OC(=O)OC(C)C)=CCSC12)c1csc(N)n1 (centres undefined)
- logD [2]: 1.37

SMILES: CC1(C)C=Cc2c(ccc3c2O[C@H]2c4ccc(O)cc4OC[C@@H]32)O1 (relative stereo)
- logP [18]: 3.58

SMILES: Cc1cc(C)cc(OP(=O)(Oc2cc(C)cc(C)c2)Oc2cc(C)cc(C)c2)c1
- logP: 5.26

SMILES: CCOP(=O)(CC(C)(C)[N+]([O-])=Cc1cc[n+]([O-])cc1)OCC
- logD [7]: -0.74

More lines, now with the values ahead:

- logP [1]: 1.52
SMILES: O=C(NCCN1CCN2Cc3[nH]c4ccccc4c3CC2C1)c1ccccc1 (centres undefined)

- logP [6]: 3.2
SMILES: COc1c(Br)cccc1C(=CC(=O)C(C)(C)C)n1cncn1

- logD [7]: 1
SMILES: CCOP(=O)(CC(C)(C)[N+]([O-])=Cc1ccccc1)OCC

- logD [5]: 1.02
SMILES: Cc1ccccc1C(=O)OCC1CCC(n2cnc3c(O)ncnc32)O1 (centres undefined)

- logD [9]: 1.81
SMILES: COCC1OC(n2ccc(=O)n(Cc3ccccc3)c2=O)C(OC)C1OC (centres undefined)

- logP [10]: 3.21
SMILES: CCCCNc1cc(C(=O)O)cc(S(N)(=O)=O)c1Oc1ccccc1

- logP [12]: 3.2
SMILES: Cc1nc(S(=O)(=O)Nc2c(F)cccc2F)nn1-c1ccccc1

- logP [12]: 3.7
SMILES: CCc1nc(S(=O)(=O)Nc2c(F)cccc2F)nn1-c1ccccc1

- logP [6]: 5.73
SMILES: CC(C)CCCCCOC(=O)COc1ccc(Cl)cc1Cl

- logP [12]: 4.4
SMILES: Cc1ccc(Cl)c(NS(=O)(=O)c2nc(C)n(-c3ccccc3)n2)c1Cl

- logD [7]: 2.29
SMILES: CCOP(=O)(CC(C)(C)[N+]([O-])=Cc1ccc(Cl)cc1)OCC

- logP [17]: 4.23
SMILES: CC(C)N(CCC(CCC1CCCCC1)(C(N)=O)c1ccccc1Cl)C(C)C (centres undefined)

- logD [20]: 2.47
SMILES: CCn1cc(C(=O)NC(C)C(=O)OC)c(=O)c2ccc(C)nc21 (centres undefined)

- logP [22]: 2.72
SMILES: Cc1nc(NCCCO)c(C#N)cc1-c1ccccc1

- logP [22]: 2.72
SMILES: Cc1nc(NCC(C)O)c(C#N)cc1-c1ccccc1 (centres undefined)

- logP [16]: 2.8
SMILES: ON=C1CCN(CCCc2ccccc2)CC1

- logP [17]: 3.66
SMILES: CC(C)N(CCC(C(N)=O)c1ccc(-c2ccccc2)cc1)C(C)C (centres undefined)

- logP [24]: 2.73
SMILES: O=C(Cc1ccccc1)Nc1ccccc1[N+](=O)[O-]

- logP [23]: 0.74
SMILES: CCOCn1c(Cc2ccccc2)c(CC)c(=O)[nH]c1=O

- logP [24]: 1.45
SMILES: Nc1ccccc1NC(=O)Cc1ccccc1

- logD [20]: 3.15
SMILES: CCn1cc(C(=O)NC(CC(C)C)C(=O)OC)c(=O)c2ccc(C)nc21 (centres undefined)

- logP [24]: 2.68
SMILES: COc1ccccc1NC(=O)Cc1ccccc1

- logP [17]: 2.83
SMILES: CC(C)N(CCC(C(N)=O)c1ccccc1Cl)C(C)C (centres undefined)

- logP [19]: 0.71
SMILES: C#CCNC(Cc1ccc(O)c2ncccc12)C(=O)OCC (centres undefined)

- logP [15]: 0.59
SMILES: CC1(C)S[C@@H]2[C@H](NC(=O)[C@@H](c3ccccc3)S(=O)(=O)O)C(=O)N2[C@H]1C(=O)O
